Patent EP1431294A1, “VASCULAR WALL-SELECTIVE ACAT INHIBITOR” (Kowa Company Ltd., priority 2001, dated 2003)

Assays:
[1] = test system: lipid-loaded model of F1B hamster; assay: Arteriosclerotic model animal test (lipid-loaded F1B hamster); conditions: for dose from which suppression of lipid accumulation was effective / plasma cholesterol at doses effective in suppression of lipid accumulation: F1B hamsters; for dose from which suppression of lipid accumulation was effective: drug in high-fat feed; for dose from which suppression of lipid accumulation was effective / CE/FC Adrenal Gland / CE/FC Lipid Accumulation to Artery / CE/FC Liver / CE/FC Small Intestine: 10 weeks; for plasma cholesterol at doses effective in suppression of lipid accumulation: total cholesterol in plasma relative to control, Dunnett's test; for CE/FC Adrenal Gland / CE/FC Lipid Accumulation to Artery / CE/FC Liver / CE/FC Small Intestine: ratio to control (1.0)
Procedure: Male hamsters of a Bio F1B strain purchased from Nippon Charles River were randomly grouped so that each group comprised six. As from eight weeks age, they were loaded with a high-fat feed (0.3% of cholesterol and 10% of coconut oil) for ten weeks while the drug was administered by mixing with the feed. After ten weeks, blood was collected and cholesterol in plasma was measured. Further, arterywas excised after fixingbyperfusion with a 10% formalin solution. This was incised, lipid which was accumulated in the artery was stained with Oil Red O and the stained area was measured using an image analyzer.
A high-fat feed (0.3% of cholesterol and 10% of coconut oil) was prepared by way of compounding ratio of cholesterol : coconut oil : feed (CE-2) = 0.03:1:9. Incidentally, a high-fat feed was given to the control group and the administered period was 10 weeks.
Hamster under a non-fasted state was anesthetized, subj ected to an abdominal section to expose the abdominal artery and about 2.5 mL of blood were collected. The collected blood was centrifuged at 3, 000 rpm for 15 minutes to collect the plasma and then total cholesterol (TC) and free cholesterol (FC) in plasma were determined by a Cholesterol E-Test Wako (a cholesterol oxidase DAOS method) and a Free Cholesterol E-Test Wako (a cholesterol oxidase DAOS method), respectively.
About 500 mg of liver, small intestine and adrenal body were excised and washed with a physiological saline solution and lipid concentration in the tissues was measured. In the measurement, 10 mL of chloroform : methanol (2:1) as an extracting solution for lipid in the tissue were placed in the liver and the small intestine, homogenized at 3,000 rpm using a Polytron Homogenizer PT 3100 and allowed to stand at 4°C for one night. The extract was centrifuged at 1,500 rpm for 15 minutes, 0.2 mL of the supernatant liquid was evaporated to dryness using a vacuum pump, the residue was dissolved in 50 µL of isopropanol and each lipid was subjected to the same kits whereupon TC and FC were quantified. With regard to the adrenal body, it was finely cut using scissors and 0.5 mL of chloroform : methanol (2:1) was added thereto followed by being allowed to stand at 4°C for one night. That was centrifuged at 1,500 rpm for 15 minutes, 0.2 mL of the supernatant liquid was evaporated to dryness using a vacuum pump, the residue was dissolved in 50 µL of isopropanol and each lipid was subjected to the same kits whereupon TC and FC were quantified.
With regard to the total cholesterol (TC) in plasma in the group to which the drug was administered, the relative ratio to TC in the control group was used as an indicator while, with regard to the tissue, difference between TC and FC was defined as CE (cholesterol ester) and the lipid-constituting ratio, CE/FC, in each organ was determined whereupon their relative ratio to each control was calculated and used as an indicator. Thus, in those indicators, the control group was defined as 100% and the calculation using the following formula was carried out so as to use a plasma TC lowering action by ACAT inhibitory action to liver and small intestine of the group to which the drug was administered as an indicator and also to use the variation of CE/FC ratio by an ACAT inhibitory action to each organ as an indicator. Indicator (%) for total cholesterol in plasma = [(TC of drug-administered group)/(TC of the control group)] × 100 [formula] Indicator (%) for lipid constituting ratio in each organ = [(CE/FC of drug-administered group)/(CE/FC of the control group)] × 100 [formula]
After collection of the blood, a 18-G injection needle was inserted into apex and perfused with a physiological saline solution (120 mmHg) for about 5minutes. It was further perfused with a 10% neutral formalin buffer (120 mmHg) for about 5 minutes. Bulbar and thoracic artery was excised and fixed in a 10% formalin buffer.

ACAT [2] = target: T1, ACAT (Mus musculus, UniProt Q61263); assay: ACAT inhibitory activity test in J774 cells (anti-foaming action); assay type: cell-based
T1 construct: J774 cells or HepG2 cells were sown on a 24-well plate; endogenous in cells; host or cells: J774 cells
T1 sequence (Q61263 1-540): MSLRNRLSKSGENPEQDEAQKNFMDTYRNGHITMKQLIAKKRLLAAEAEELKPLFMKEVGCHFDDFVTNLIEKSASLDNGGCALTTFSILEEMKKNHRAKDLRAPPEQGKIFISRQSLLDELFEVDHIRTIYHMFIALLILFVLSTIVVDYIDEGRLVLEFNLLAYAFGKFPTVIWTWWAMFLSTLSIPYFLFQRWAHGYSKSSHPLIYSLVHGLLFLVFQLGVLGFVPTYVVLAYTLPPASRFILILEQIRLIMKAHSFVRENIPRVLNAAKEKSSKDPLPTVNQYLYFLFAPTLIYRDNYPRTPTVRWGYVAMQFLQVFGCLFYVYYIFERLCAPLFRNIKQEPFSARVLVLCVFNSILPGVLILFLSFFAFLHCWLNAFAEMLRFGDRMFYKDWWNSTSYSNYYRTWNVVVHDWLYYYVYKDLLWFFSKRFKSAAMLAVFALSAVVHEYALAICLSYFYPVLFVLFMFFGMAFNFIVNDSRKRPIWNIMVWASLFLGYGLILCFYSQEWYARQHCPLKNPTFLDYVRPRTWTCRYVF
Procedure: (§1) J774 cells or HepG2 cells were sown on a 24-well plate and incubation was carried out at 37°C for 24 hours in a 5% CO2 incubator using a Dulbecco's modified Eagle's medium for J774 cells and an Eagle's minimum essential medium for HepG2 cells (where both media contained 10% of fetal bovine serum). […] The medium was taken out, washed with PBS twice, extracted with 1.5 mL of hexane-isopropanol (3:2) and concentrated to dryness. The extract was dissolved in isopropanol containing 0.2 mL of 10% Triton X-100 and then total cholesterol (TC) and free cholesterol (FC) were determined by a Cholesterol E Test Wako (Wako Pure Chemical) and a Free Cholesterol E Test Wako (Wako Pure Chemical), respectively. The residue of the cell after extraction was solubilized with 0.25 mL of 2N NaOH at 37°C for 30 minutes and protein was determined by a BCA Protein Assay Reagent (Pierce). From the differencebetween TC and FC, amount of cholesterolester per protein was calculated and, from the comparative calculation with the control, IC50 value was determined.

ACAT [3] = assay: ACAT inhibitory activity test in HepG2 cells; assay type: cell-based; conditions: 25-hydroxycholesterol 10 µg/mL, 18 hours, cholesterol ester per protein
Procedure: as §1

[4] = Water solubility in liquid I of the Japanese Pharmacopoeia; assay type: physicochemical
[5] = Oral absorption test in rats under a fed condition (plasma concentration); assay type: in vivo; conditions: for AUC(0-inf) / Cmax: rat, plasma, po, 30 mg/kg, rats, fed, oral 30 mg/kg
Procedure: A solution of the compound of the present invention (dissolved in a mixture of water : PEG 400 = 1:4) or a suspension in 0.5% methyl cellulose (MC) was compulsorily administered per os at. the dose of 30 mg/kg to three rats under a fed condition. Blood after the administration was periodically collected and its concentration in plasma was measured.
The organic layer (upper layer) was collected, the solvent was evaporated in a nitrogen stream, the residue was dissolved in 0.2 mL of a mobile phase (refer to the following) and 80 µL thereof were measured under the following analytical conditions.
The organic layer was collected, the solvent was evaporated in a nitrogen stream, the residue was dissolved in 0.2 mL of a mobile phase (refer to the following) and 80 µL thereof were measured under the following condition for high-performance liquid chromatography. Condition for detection: • (Detector: Single-stage quadrupole mass spectrometer • Ionization method: Atmospheric pressure chemical ionization method • Temperature of nebulizer: 475°C • Corona voltage: 3 kV • Monitoring ion: m/z 569 (hydrogen addition ion of the compound of Example 78), 549 (hydrogen addition ion of the compound of Example 85)) Condition for separation: • (Column: Symmetry RP8 manufactured by Waters (3.0 mmφ × 150 mm) • Temperature of column: 45°C • Mobile phase: a solution where 0.1% ammonium formate (pH 4)/methanol/acetonitrile are mixed in […] • Flow rate: 0.8 mL/min)
To 150 µL of plasma were added a 0.1 mol/L aqueous solution of sodium hydroxide and 0.2 mL of an analogous compound (500 ng/mL of the compound of Example 28 of the Japanese Patent Application No. 8/158,743, i.e. 8-(benzimidazol-2-ylthio)-N-(2,6-diisopropylphenyl)octanamide as an internal standard, stirred and extracted with 6 mL of an isopropanol/hexane (5: 95) solution. The organic layer was collected, the solvent was evaporated in a nitrogen stream, the residue was dissolved in 0.2 mL of a mobile phase (refer to the following) and 80 µL thereof were measured under the following condition for high-performance liquid chromatography.

[6] = as above; assay type: in vivo; conditions: rat, 30 mg/kg, medium 0.05N (Aq HCl)

CC(C)c1cc(C(C)C)c(CC(=O)NS(=O)(=O)Oc2c(C(C)C)cccc2C(C)C)c(C(C)C)c1 [Cl-1011]
dose from which suppression of lipid accumulation was effective [1]: ≥ 1 mg/kg | plasma cholesterol at doses effective in suppression of lipid accumulation [1]: accompanied by a significant decrease of plasma cholesterol | CE/FC Adrenal Gland ([1]; dose 0.1 mg/kg in feed): 0.98 | CE/FC Lipid Accumulation to Artery ([1]; dose 0.1 mg/kg in feed): 0.73 | CE/FC Liver ([1]; dose 0.1 mg/kg in feed): 1.03 | CE/FC Small Intestine ([1]; dose 0.1 mg/kg in feed): 0.92 | CE/FC Adrenal Gland ([1]; dose 0.3 mg/kg in feed): 1.03 | CE/FC Lipid Accumulation to Artery ([1]; dose 0.3 mg/kg in feed): 0.81 | CE/FC Liver ([1]; dose 0.3 mg/kg in feed): 0.74 | CE/FC Small Intestine ([1]; dose 0.3 mg/kg in feed): 0.82 | CE/FC Adrenal Gland ([1]; dose 1 mg/kg in feed): 0.62 | CE/FC Lipid Accumulation to Artery ([1]; dose 1 mg/kg in feed): 0.35 | CE/FC Liver ([1]; dose 1 mg/kg in feed): 0.37 | CE/FC Small Intestine ([1]; dose 1 mg/kg in feed): 0.60 | CE/FC Adrenal Gland ([1]; dose 3 mg/kg in feed): 0.24 | CE/FC Lipid Accumulation to Artery ([1]; dose 3 mg/kg in feed): 0.15 | CE/FC Liver ([1]; dose 3 mg/kg in feed): 0.17 | CE/FC Small Intestine ([1]; dose 3 mg/kg in feed): 0.08 | CE/FC Adrenal Gland ([1]; dose 10 mg/kg in feed): 0.28 | CE/FC Lipid Accumulation to Artery ([1]; dose 10 mg/kg in feed): 0 | CE/FC Liver ([1]; dose 10 mg/kg in feed): 0.07 | CE/FC Small Intestine ([1]; dose 10 mg/kg in feed): 0 | difference of selectivities in each of the tissues ([1]; suppressing rate of lipid accumulation vs CE/FC ratio in liver, small intestine, adrenal body): a significant difference of selectivities was not found

CC(C)c1ccc(O)c(C(C)C)c1NC(=O)CN1CCN(CCSc2nc3cccc(C(F)(F)F)c3o2)CC1 [Comparative Compound, 2-[4-[2-(7-trifluoromethylbenzoxazol-2-ylthio)ethyl]piperazin-1-yl]-N-(2,6-diisopropyl-3-hydroxyphenyl)acetamide]
IC50 (ACAT [2]; J774 cells, 25-hydroxycholesterol 10 µg/mL, 18 hours, cholesterol ester per protein): 460 nM | lowering of ACAT inhibitory activity (J774) (ACAT [2]; compared with the compound of Example 85 (19 nM)): about 24 fold

CC(C)c1cc(O)cc(C(C)C)c1NC(=O)CN1CCN(CCSc2nc3cccc(C(F)(F)F)c3o2)CC1.Cl [Compound of the Invention, 2-[4-[2-(7-trifluoromethylbenzoxazol-2-ylthio)ethyl]piperazin-1-yl]-N-(2,6-diisopropyl-4-hydroxyphenyl)acetamide hydrochloride]
IC50 (ACAT [3]): 2900 nM | increase of solubility ([4]; compared with the lead compound (Example 85)): 5 fold | solubility ([4]; pH 1.2, simulated gastric fluid): 500 µg/mL | improvement of oral absorption ([5]; compared with Example 85, medium 0.5% methyl cellulose (MC) suspension, rats 30 mg/kg): about 9.4 fold | increase in oral absorption ([5]; compared with Example 85, medium water/PEG 400 (1:4), rats 30 mg/kg): about 8 fold | AUC(0-inf) ([5]; medium 0.5% MC Suspension): 639 ng·h/mL | Cmax ([5]; medium 0.5% MC Suspension): 167 ng/mL | AUC(0-inf) ([5]; medium PEG 400: Water (4:1)): 486 ng·h/mL | Cmax ([5]; medium PEG 400: Water (4:1)): 141 ng/mL | macrophage selectivity (IC50 (HepG2)/IC50 (J774)) (ACAT [2]): about 45 fold | dose from which suppression of lipid accumulation was effective [1]: ≥ 3 mg/kg | plasma cholesterol at doses effective in suppression of lipid accumulation [1]: without a significant decrease of plasma cholesterol | CE/FC Adrenal Gland ([1]; dose 3 mg/kg in feed): 1.02 | CE/FC Lipid Accumulation to Artery ([1]; dose 3 mg/kg in feed): 0.69 | CE/FC Liver ([1]; dose 3 mg/kg in feed): 1.08 | CE/FC Small Intestine ([1]; dose 3 mg/kg in feed): 1.16 | CE/FC Adrenal Gland ([1]; dose 10 mg/kg in feed): 1.11 | CE/FC Lipid Accumulation to Artery ([1]; dose 10 mg/kg in feed): 0.33 | CE/FC Liver ([1]; dose 10 mg/kg in feed): 0.88 | CE/FC Small Intestine ([1]; dose 10 mg/kg in feed): 1.02 | CE/FC Adrenal Gland ([1]; dose 30 mg/kg in feed): 0.89 | CE/FC Lipid Accumulation to Artery ([1]; dose 30 mg/kg in feed): 0.21 | CE/FC Liver ([1]; dose 30 mg/kg in feed): 0.60 | CE/FC Small Intestine ([1]; dose 30 mg/kg in feed): 0.91 | CE/FC Adrenal Gland ([1]; dose 100 mg/kg in feed): 0.52 | CE/FC Lipid Accumulation to Artery ([1]; dose 100 mg/kg in feed): 0.17 | CE/FC Liver ([1]; dose 100 mg/kg in feed): 0.24 | CE/FC Small Intestine ([1]; dose 100 mg/kg in feed): 0.20

CC(C)c1cccc(C(C)C)c1NC(=O)CN1CCN(CCSc2nc3ccccc3o2)CC1 [Example 1, 2-[4-[2-(benzoxazol-2-ylthio)ethyl]piperazin-1-yl]-N-(2,6-diisopropylphenyl) acetamide]
AUC(0-inf) [6]: 295 ng·h/mL | Cmax [6]: 110 ng/mL
